In US20150344457A1, “METHODS OF INHIBITING PRMT5” (EPIZYME, INC., priority 2012, published 2015):

Test system: Z-138 cells
Experiment: Z-138 Methylation Assay (In Cell Western for symmetric di-methyl arginine and DNA content)
Type: cell-based
Settings: Homo sapiens, Table A-2, 96 hours, symmetric di-methyl arginine, read-out: ICW EC50
Text: Z-138 suspension cells were purchased from ATCC (American Type Culture Collection, Manassas, Va.). RPMI/Glutamax medium, penicillin-streptomycin, heat inactivated fetal bovine serum, and D-PBS were purchased from Life Technologies, Grand Island, N.Y., USA. Odyssey blocking buffer, 800CW goat anti-rabbit IgG (H+L) antibody, and Licor Odyssey infrared scanner were purchased from Licor Biosciences, Lincoln, Nebr., USA. Symmetric di-methyl arginine antibody was purchased from EMD Millipore, Billerica, Mass., USA. 16% Paraformaldehyde was purchased from Electron Microscopy Sciences, Hatfield, Pa., USA.
Z-138 suspension cells were maintained in growth medium (RPMI 1640 supplemented with 10% v/v heat inactivated fetal bovine serum and 100 units/mL penicillin-streptomycin) and cultured at 37° C. under 5% CO2.
Cell Treatment, in Cell Western (ICW) for Detection of Symmetric Di-Methyl Arginine and DNA Content.
Z-138 cells were seeded in assay medium at a concentration of 50,000 cells per mL to a 384-well cell culture plate with 50 μL per well. Compound (100 nL) from 384 well source plates was added directly to 384 well cell plate. Plates were incubated at 37° C., 5% CO2 for 96 hours. After four days of incubation, 40 μL of cells from incubated plates were added to poly-D-lysine coated 384 well culture plates (BD Biosciences 356697). Plates were incubated at room temperature for 30 minutes then incubated at 37° C., 5% CO2 for 5 hours. After the incubation, 40 μL per well of 8% paraformaldehyde in PBS (16% paraformaldahyde was diluted to 8% in PBS) was added to each plate and incubated for 30 minutes. Plates were transferred to a Biotek 405 plate washer and washed 5 times with 100 μL per well of wash buffer (1×PBS with 0.1% Triton X-100 (v/v)). Next 30 μL per well of Odyssey blocking buffer were added to each plate and incubated 1 hour at room temperature. Blocking buffer was removed and 20 μL per well of primary antibody was added (symmetric di-methyl arginine diluted 1:100 in Odyssey buffer with 0.1% Tween 20 (v/v)) and plates were incubated overnight (16 hours) at 4° C. Plates were washed 5 times with 100 μL per well of wash buffer. Next 20 μL per well of secondary antibody was added (1:200 800CW goat anti-rabbit IgG (H+L) antibody, 1:1000 DRAQS (Biostatus limited) in Odyssey buffer with 0.1% Tween 20 (v/v)) and incubated for 1 hour at room temperature. The plates were washed 5 times with 100 μL per well wash buffer then 1 time with 100 μL per well of water. Plates were allowed to dry at room temperature then imaged on the Licor Odyssey machine which measures integrated intensity at 700 nm and 800 nm wavelengths. Both 700 and 800 channels were scanned.
First, the ratio for each well was determined by:
Each plate included fourteen control wells of DMSO only treatment (minimum inhibition) as well as fourteen control wells for maximum inhibition treated with 3 μM of a reference compound (Background wells). The average of the ratio values for each control type was calculated and used to determine the percent inhibition for each test well in the plate. Reference compound was serially diluted three-fold in DMSO for a total of nine test concentrations, beginning at 3 μM. Percent inhibition was determined and IC50 curves were generated using triplicate wells per concentration of compound.

Row | EC50 | SMILES
1 | 101 to 1000 nM | O=C(COc1cccc2c1CNCC2)NCC(O)CN1CCc2ccccc2C1 (centres unmarked) [Compound A119]
2 | 1000 to 10000 nM | CN1CCc2cccc(OCC(=O)NCC(O)CN3CCc4ccccc4C3)c2C1 (centres unmarked) [Compound A120]
3 | 1000 to 10000 nM | CC(=O)N1CCN(S(=O)(=O)c2ccccc2OCC(=O)NCC(O)CN2CCc3ccccc3C2)CC1 (centres unmarked) [Compound A122]
4 | 101 to 1000 nM | CNS(=O)(=O)c1ccccc1OCC(=O)NCC(O)CN1CCc2ccccc2C1 (centres unmarked) [Compound A123]
5 | 1000 to 10000 nM | O=C(COc1cccc2c1OCC(=O)N2)NCC(O)CN1CCc2ccccc2C1 (centres unmarked) [Compound A124]
6 | 1000 to 10000 nM | CN(C)c1ncccc1OCC(=O)NCC(O)CN1CCc2ccccc2C1 (centres unmarked) [Compound A127]
7 | 1000 to 10000 nM | O=C(COc1cccc2ncc(=O)[nH]c12)NCC(O)CN1CCc2ccccc2C1 (centres unmarked) [Compound A129]
8 | 101 to 1000 nM | CN1CCCC(c2ccccc2OCC(=O)NCC(O)CN2CCc3ccccc3C2)C1 (centres unmarked) [Compound A130]
9 | 1000 to 10000 nM | CN1CCC(c2ccccc2OCC(=O)NCC(O)CN2CCc3ccccc3C2)CC1 (centres unmarked) [Compound A134]
10 | 1000 to 10000 nM | O=C(COc1ccccc1-c1ncc[nH]1)NCC(O)CN1CCc2ccccc2C1 (centres unmarked) [Compound A137]
11 | 101 to 1000 nM | CN(c1cccc(OCC(=O)NCC(O)CN2CCc3ccccc3C2)c1)S(C)(=O)=O (centres unmarked) [Compound A142]
